Experimental data reported in US11414431B2, “Substituted pyrazolo[1,5-a]pyrimidines as TYK2 inhibitors” (Nimbus Lakshmi, Inc., priority 2018, dated 2022).

System: IL-12 induced STAT4 phosphorlyation mediated by TYK2/JAK2
Assay: IL-12 Induced pSTAT4 in Human PBMC
Format: cell-based
Conditions: 1.7 ng/mL IL-12 for 30 minutes
Outline: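 Thawed human PBMC pre-incubated with compound 1 hr at 37° C (0.1% DMSO final), then stimulated 30 minutes with IL-12 at 1.7 ng/mL final. pSTAT4 and total STAT4 measured in cell lysates with MSD reagents.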

CNc1cc(Nc2cccn(C3COC3)c2=O)nc2c(C(=O)N[C@@H]3CCC3(F)F)cnn12 [Compound I-282]
IC50: < 0.1 µM

CNc1cc(-c2cn(CCOC)c3ncccc23)nc2c(C(=O)NC3CC[C@@H]3OC)cnn12 (stereo partly drawn) [Compound I-795]
IC50: < 0.1 µM

CNc1cc(-c2cnc3n([C@@H]4COC[C@H]4OC)cccc2-3)nc2c(C(=O)NC3CC[C@H]3O)cnn12 (stereo partly drawn) [Compound I-865]
IC50: 0.5 to 1 µM

CNc1cc(Nc2cccn([C@H]3CCC[C@@H](C#N)C3)c2=O)nc2c(C(=O)N[C@@H]3CC[C@H]3OC)cnn12 [Compound I-258]
IC50: < 0.1 µM

CNc1cc(-c2cn([C@H]3CO[C@@H](COC)C3)c3ncccc23)nc2c(C(=O)N[C@H]3CC[C@@H]3OC)cnn12 [Compound I-1018, N-((1S,2S)-2-methoxycyclobutyl)-5-(1-(5-(methoxymethyl)tetrahydrofuran-3-yl)-1H-pyrrolo[2,3-b]pyridin-3-yl)-7-(methylamino)pyrazolo[1,5-a]pyrimidine-3-carboxamide]
IC50 (0.5 h): < 0.1 µM

CNc1cc(Nc2cccn([C@@H]3CCC[C@H](C#N)C3)c2=O)nc2c(C(=O)N[C@@H]3CC[C@H]3OC)cnn12 [Compound I-260]
IC50: < 0.1 µM

CNc1cc(Nc2cccn(C3COC3)c2=O)nc2c(C(=O)NC3CCC3(F)F)cnn12 (stereo not drawn) [Compound I-280]
IC50: < 0.1 µM

CNc1cc(-c2cn([C@H]3CCOC3)c3ncccc23)nc2c(C(=O)NC3CC[C@@H]3OC)cnn12 (stereo partly drawn) [Compound I-612]
IC50: < 0.1 µM

CNc1cc(-c2cn([C@H]3COC[C@@H]3OC)c3ncccc23)nc2c(C(=O)N[C@H]3CC[C@@H]3OC)cnn12 [Compound I-634]
IC50: < 0.1 µM

CNc1cc(-c2cnc3n([C@@H]4CN(C)C[C@H]4OC)cccc2-3)nc2c(C(=O)NC3CC[C@@H]3OC)cnn12 (stereo partly drawn) [Compound I-943]
IC50: < 0.1 µM

CNc1cc(-c2cn(C3CCCC3)c3ncccc23)nc2c(C(=O)NC3CCC3(F)F)cnn12 (stereo not drawn) [Compound I-680]
IC50: < 0.1 µM

CNc1cc(Nc2cccn(-c3ccc(C)nc3)c2=O)nc2c(C(=O)N[C@@H]3C[C@H]3OC)cnn12 [Compound I-34, N-((1R,2R)-2-Methoxycyclopropyl)-5-((6′-methyl-2-oxo-2H-[1,3′-bipyridin]-3-yl)amino)-7-(methylamino)pyrazolo[1,5-a]pyrimidine-3-carboxamide]
IC50 (0.5 h): < 0.1 µM

CNc1cc(-c2cnc3n([C@@H]4COC[C@H]4O)cccc2-3)nc2c(C(=O)N[C@@H]3CC[C@H]3OC)cnn12 [Compound I-876]
IC50: < 0.1 µM

CNc1cc(Nc2cccn([C@@H]3CCC[C@@H]3O)c2=O)nc2c(C(=O)NC3CC[C@@H]3F)cnn12 (stereo partly drawn) [Compound I-179]
IC50: < 0.1 µM

CNc1cc(-c2cn([C@H]3CN(C)C[C@@H]3F)c3ncccc23)nc2c(C(=O)N[C@H]3CC[C@@H]3OC)cnn12 [Compound I-640]
IC50: < 0.1 µM

CNc1cc(-c2cnc3n(CC(=O)N4CCC4)cccc2-3)nc2c(C(=O)N[C@H]3CC[C@@H]3OC)cnn12 [Compound I-977]
IC50: > 1 µM

CNc1cc(-c2cnc3n([C@@H]4CCOC[C@H]4OC)cccc2-3)nc2c(C(=O)N[C@@H]3CC[C@H]3OC)cnn12 [Compound I-896]
IC50: < 0.1 µM

CNc1cc(-c2cn(CC(=O)N(C)C)c3ncccc23)nc2c(C(=O)NC3CC[C@@H]3OC)cnn12 (stereo in doubt) [Compound I-920, 5-(1-(2-(dimethylamino)-2-oxoethyl)-1H-pyrrolo[2,3-b]pyridin-3-yl)-N-(2-methoxycyclobutyl)-7-(methylamino)pyrazolo[1,5-a]pyrimidine-3-carboxamide]
IC50 (0.5 h): 0.1 to 0.5 µM

CNc1cc(Nc2cccn(-c3ccccn3)c2=O)nc2c(C(=O)NC3CC[C@@H]3F)cnn12 (stereo partly drawn) [Compound I-200]
IC50: < 0.1 µM

CNc1cc(-c2cnc3n([C@H]4COC[C@@H]4O)cccc2-3)nc2c(C(=O)NC3CC[C@@H]3OC)cnn12 (stereo partly drawn) [Compound I-877]
IC50: 0.1 to 0.5 µM

CNc1cc(-c2cn([C@@H]3CN(C)C[C@H]3F)c3ncccc23)nc2c(C(=O)N[C@H]3CC[C@@H]3OC)cnn12 [Compound I-643]
IC50: < 0.1 µM

CNc1cc(Nc2cccn([C@H]3CCC[C@@](C)(O)C3)c2=O)nc2c(C(=O)N[C@@H]3C[C@@H]3F)cnn12 [Compound I-129]
IC50: < 0.1 µM

CNc1cc(Nc2cccn(C3CCOCC3)c2=O)nc2c(C(=O)N[C@@H]3CC[C@H]3F)cnn12 [Compound I-190]
IC50: < 0.1 µM

CNc1cc(-c2cn([C@H]3CC(=O)N(C4CCOCC4)C3)c3ncccc23)nc2c(C(=O)NC3CC[C@@H]3OC)cnn12 (stereo partly drawn) [Compound I-1027]
IC50: 0.1 to 0.5 µM

CNc1cc(-c2cnc3n([C@@H]4COC[C@H]4OC)cccc2-3)nc2c(C(=O)NC3CC[C@@H]3F)cnn12 (stereo partly drawn) [Compound I-835]
IC50: < 0.1 µM

CNc1cc(-c2cn([C@@H]3CCN(C)C3)c3ncccc23)nc2c(C(=O)NC3CC[C@@H]3OC)cnn12 (stereo partly drawn) [Compound I-615]
IC50: < 0.1 µM

CNc1cc(-c2cn([C@H]3COC[C@@H]3OC)c3ncccc23)nc2c(C(=O)N[C@H]3CC[C@@H]3F)cnn12 [Compound I-523]
IC50: < 0.1 µM

CNc1cc(Nc2cccn(C3CCOCC3)c2=O)nc2c(C(=O)N[C@H]3CC[C@]3(C)O)cnn12 [Compound I-349]
IC50: < 0.1 µM

CNc1cc(Nc2cccn([C@H]3[C@@H]4COC[C@@H]43)c2=O)nc2c(C(=O)N[C@@H]3CC[C@H]3OC)cnn12 [Compound I-262]
IC50: < 0.1 µM

CNc1cc(-c2cn([C@@H]3COC[C@@H]3F)c3ncccc23)nc2c(C(=O)NC3CC[C@@H]3OC)cnn12 (stereo partly drawn) [Compound I-621]
IC50: < 0.1 µM

CNc1ccc(-c2cc(NC)n3ncc(C(=O)N[C@H]4CC[C@H]4F)c3n2)n2ccnc12 [Compound I-784]
IC50: < 0.1 µM

CNc1cc(Nc2cccn([C@@H]3CCC[C@H](C#N)C3)c2=O)nc2c(C(=O)NC3CCC3(F)F)cnn12 (stereo partly drawn) [Compound I-327]
IC50: < 0.1 µM

CNc1cc(Nc2cccn(C(C)C)c2=O)nc2c(C(=O)NC3CC[C@@H]3F)cnn12 (mixture of isomers) [Compound I-145]
IC50: < 0.1 µM

CNc1cc(-c2cn([C@@H]3COC[C@@H]3F)c3ncccc23)nc2c(C(=O)N[C@@H]3COC[C@@H]3O)cnn12 [Compound I-730]
IC50: 0.1 to 0.5 µM

CNc1cc(-c2cn([C@@H]3CC3(F)F)c3ncccc23)nc2c(C(=O)N[C@@H]3COC[C@@H]3O)cnn12 [Compound I-713]
IC50: 0.1 to 0.5 µM

CNc1ccc(-c2cc(NC)n3ncc(C(=O)N[C@H]4CC[C@H]4O)c3n2)n2ccnc12 [Compound I-485]
IC50: < 0.1 µM

CNc1cc(Nc2cccn([C@@H]3CCCOC3)c2=O)nc2c(C(=O)NC3CCC3(F)F)cnn12 (stereo partly drawn) [Compound I-315]
IC50: < 0.1 µM

CNc1cc(Nc2cccn([C@H]3CCC[C@H]3O)c2=O)nc2c(C(=O)N[C@H]3CC[C@]3(C)OC)cnn12 [Compound I-391]
IC50: < 0.1 µM

CNc1cc(-c2cn([C@H]3C[C@@H](OC)C3)c3ncccc23)nc2c(C(=O)NC3CC[C@@H]3OC)cnn12 (stereo partly drawn) [Compound I-925, N-(2-methoxycyclobutyl)-5-(1-((1s,3S)-3-methoxycyclobutyl)-1H-pyrrolo[2,3-b]pyridin-3-yl)-7-(methylamino)pyrazolo[1,5-a]pyrimidine-3-carboxamide]
IC50 (0.5 h): < 0.1 µM

CNc1cc(Nc2cccn(-c3ncccc3F)c2=O)nc2c(C(=O)NC3CC[C@@]3(C)OC)cnn12 (stereo partly drawn) [Compound I-414]
IC50: < 0.1 µM

CNc1cc(-c2cn(C3CCCC3)c3ncccc23)nc2c(C(=O)N[C@H]3CCC3(F)F)cnn12 [Compound I-685]
IC50: < 0.1 µM

CNc1cc(-c2cn(C3CN(C)C3)c3ncccc23)nc2c(C(=O)N[C@H]3CC[C@@H]3F)cnn12 [Compound I-514]
IC50: < 0.1 µM

CNc1cc(-c2cnc3n([C@H]4COC[C@@H]4OC)cccc2-3)nc2c(C(=O)NC3CC[C@@H]3OC)cnn12 (stereo partly drawn) [Compound I-880]
IC50: < 0.1 µM

CNc1cc(Nc2cccn(C3CCOCC3)c2=O)nc2c(C(=O)NC3CC[C@@]3(C)OC)cnn12 (stereo partly drawn) [Compound I-405]
IC50: < 0.1 µM

CNc1cc(-c2cn([C@@H]3CCOC[C@H]3F)c3ncccc23)nc2c(C(=O)N[C@H]3CC[C@@H]3OC)cnn12 [Compound I-804]
IC50: < 0.1 µM

CNc1cc(Nc2cccn(-c3ccccn3)c2=O)nc2c(C(=O)N[C@@H]3CC[C@H]3OC)cnn12 [Compound I-264]
IC50: < 0.1 µM

CNc1cc(-c2cnc3n([C@@H]4CCOC4)cccc2-3)nc2c(C(=O)NC3CC[C@@H]3OC)cnn12 (stereo partly drawn) [Compound I-995]
IC50: < 0.1 µM

CNc1cc(Nc2cccn([C@@H]3C[C@H]3F)c2=O)nc2c(C(=O)N[C@@H]3CCC3(F)F)cnn12 [Compound I-276]
IC50: < 0.1 µM

CNc1cc(-c2cn([C@H]3C[C@@H](COC)C3)c3ncccc23)nc2c(C(=O)NC3CC[C@@H]3OC)cnn12 (stereo partly drawn) [Compound I-932, N-(2-methoxycyclobutyl)-5-(1-((1s,3R)-3-(methoxymethyl)cyclobutyl)-1H-pyrrolo[2,3-b]pyridin-3-yl)-7-(methylamino)pyrazolo[1,5-a]pyrimidine-3-carboxamide]
IC50 (0.5 h): < 0.1 µM

CNc1cc(Nc2cccn([C@H]3C[C@H](OC)C3)c2=O)nc2c(C(=O)N[C@H]3CCC3(F)F)cnn12 [Compound I-293]
IC50: < 0.1 µM

CNc1cc(Nc2cccn([C@H]3C[C@H](F)C3)c2=O)nc2c(C(=O)NC3CCC3(F)F)cnn12 (stereo partly drawn) [Compound I-283]
IC50: < 0.1 µM

CNc1cc(Nc2cccn([C@@H]3CC[C@H]3OC)c2=O)nc2c(C(=O)N[C@H]3CC[C@H]3O)cnn12 [Compound I-243]
IC50: < 0.1 µM

CNc1cc(Nc2cccn([C@@H]3CCCOC3)c2=O)nc2c(C(=O)N[C@@H]3CCC3(F)F)cnn12 [Compound I-317]
IC50: < 0.1 µM

CNc1cc(Nc2cccn([C@H]3CCC[C@H]3O)c2=O)nc2c(C(=O)NC3CC[C@]3(C)OC)cnn12 (stereo partly drawn) [Compound I-390]
IC50: < 0.1 µM

CNc1cc(Nc2cccn(-c3ccccn3)c2=O)nc2c(C(=O)N[C@H]3CC[C@@H]3F)cnn12 [Compound I-201]
IC50: < 0.1 µM

CNc1cc(Nc2cccn([C@H]3CC[C@H]3O)c2=O)nc2c(C(=O)NC3CCC3(F)F)cnn12 (stereo partly drawn) [Compound I-286]
IC50: < 0.1 µM

CNc1cc(-c2cn(C(C)C)c3nnccc23)nc2c(C(=O)N[C@H]3CC[C@H]3O)cnn12 [Compound I-1000]
IC50: 0.5 to 1 µM
